Where two headings read alike, the source gives them in different places.
Columns and labels:
[1] = target: T1, MLK3/MAP3K11 (Homo sapiens, UniProt Q16584); test: Radiolabeled ATP kinase assay (Reaction Biology Corp.), MLK3; assay type: biochemical; settings: [Cmpd] 0.1 μM; 10 μM ATP
T1 construct: purchased Reaction Biology Corp
Experimental: (§1) Meanwhile, the same analogs were analyzed in a radiolabeled ATP assay (10 μM ATP; Reaction Biology Corp.) to compare the extent to which they could inhibit the activity of HGK, MLK1, or MLK3 in a cell-free environment (Table S3 and S4).

[2] = target: T2, MLK1/MAP3K9 (Homo sapiens, UniProt P80192); test: Radiolabeled ATP kinase assay (Reaction Biology Corp.), MLK1; assay type: biochemical; settings: [Cmpd] 0.1 μM, 10 μM ATP
T2 construct: purchased Reaction Biology Corp
Experimental: as §1

[3] = target: HGK/MAP4K4 (Homo sapiens, UniProt O95819); test: Radiolabeled ATP kinase assay (Reaction Biology Corp.), HGK; assay type: biochemical; design: purchased Reaction Biology Corp; settings: 10 μM ATP, read-out: % Enzyme Activity (relative to DMSO controls), HGK/MAP4K4, Data 1; for remaining activity at 0.025 µM: [Cmpd] 0.025 μM; for remaining activity at 0.1 µM: [Cmpd] 0.1 μM
Experimental: as §1

[4] = tested on: human ES motor neurons carrying the ALS-causing SOD1^A4V mutation; test: cells; assay type: cell-based; settings: 72 h, 72 h; for EC50 / Emax: CPA 33 μM; for viability at 1 µM: CPA (33 μM) + compound (1 μM), read-out: Motor Neuron Survival, % untreated; for Emax: read-out: Emax (MN survival % untreated)
Experimental: Next, survival assays were performed with all the analogs at once to generate a low-variability dataset. All compounds were evaluated at concentrations ranging from 0.1-3.0 μM (five-point dilution) in three technical replicates and two biological replicates.

[5] = read-out: % Enzyme Activity Remaining (relative to DMSO controls), MLK1/MAP3K9, Data 1
[6] = read-out: % Enzyme Activity Remaining (relative to DMSO controls), MLK1/MAP3K9, Data 2
[7] = Homo sapiens, Neuron, read-out: EC50

Sequence of HGK/MAP4K4 (O95819 whole entry): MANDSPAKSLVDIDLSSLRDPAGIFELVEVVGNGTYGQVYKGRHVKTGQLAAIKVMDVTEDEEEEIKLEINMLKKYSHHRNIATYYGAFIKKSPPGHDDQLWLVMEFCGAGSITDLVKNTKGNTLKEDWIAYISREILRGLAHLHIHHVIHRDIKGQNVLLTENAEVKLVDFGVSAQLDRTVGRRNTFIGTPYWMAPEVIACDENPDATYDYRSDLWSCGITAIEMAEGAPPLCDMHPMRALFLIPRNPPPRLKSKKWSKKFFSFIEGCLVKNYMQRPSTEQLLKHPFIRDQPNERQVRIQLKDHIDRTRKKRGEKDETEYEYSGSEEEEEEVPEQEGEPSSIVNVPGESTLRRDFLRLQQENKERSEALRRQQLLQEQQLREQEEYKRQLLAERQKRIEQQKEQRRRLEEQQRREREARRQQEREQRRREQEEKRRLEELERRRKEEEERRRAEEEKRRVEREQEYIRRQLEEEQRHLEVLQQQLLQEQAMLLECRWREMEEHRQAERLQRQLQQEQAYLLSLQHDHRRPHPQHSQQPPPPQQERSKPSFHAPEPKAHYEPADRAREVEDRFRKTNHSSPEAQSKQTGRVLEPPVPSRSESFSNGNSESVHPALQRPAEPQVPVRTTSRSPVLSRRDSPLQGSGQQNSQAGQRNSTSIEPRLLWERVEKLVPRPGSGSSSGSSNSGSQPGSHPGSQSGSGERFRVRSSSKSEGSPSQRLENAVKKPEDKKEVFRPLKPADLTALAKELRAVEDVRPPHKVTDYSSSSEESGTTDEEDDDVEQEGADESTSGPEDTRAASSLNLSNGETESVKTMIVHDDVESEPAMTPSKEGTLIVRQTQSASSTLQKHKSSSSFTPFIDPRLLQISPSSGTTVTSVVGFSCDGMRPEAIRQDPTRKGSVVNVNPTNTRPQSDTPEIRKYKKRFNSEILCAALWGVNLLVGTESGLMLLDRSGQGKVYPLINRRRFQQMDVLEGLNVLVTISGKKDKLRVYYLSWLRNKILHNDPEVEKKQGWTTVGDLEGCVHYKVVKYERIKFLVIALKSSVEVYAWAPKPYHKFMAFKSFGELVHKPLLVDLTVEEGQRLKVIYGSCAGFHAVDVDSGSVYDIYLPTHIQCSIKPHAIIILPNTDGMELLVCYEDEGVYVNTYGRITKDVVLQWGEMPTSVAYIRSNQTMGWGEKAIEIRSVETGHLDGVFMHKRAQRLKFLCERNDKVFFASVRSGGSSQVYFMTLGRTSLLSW
T2 sequence (P80192 whole entry): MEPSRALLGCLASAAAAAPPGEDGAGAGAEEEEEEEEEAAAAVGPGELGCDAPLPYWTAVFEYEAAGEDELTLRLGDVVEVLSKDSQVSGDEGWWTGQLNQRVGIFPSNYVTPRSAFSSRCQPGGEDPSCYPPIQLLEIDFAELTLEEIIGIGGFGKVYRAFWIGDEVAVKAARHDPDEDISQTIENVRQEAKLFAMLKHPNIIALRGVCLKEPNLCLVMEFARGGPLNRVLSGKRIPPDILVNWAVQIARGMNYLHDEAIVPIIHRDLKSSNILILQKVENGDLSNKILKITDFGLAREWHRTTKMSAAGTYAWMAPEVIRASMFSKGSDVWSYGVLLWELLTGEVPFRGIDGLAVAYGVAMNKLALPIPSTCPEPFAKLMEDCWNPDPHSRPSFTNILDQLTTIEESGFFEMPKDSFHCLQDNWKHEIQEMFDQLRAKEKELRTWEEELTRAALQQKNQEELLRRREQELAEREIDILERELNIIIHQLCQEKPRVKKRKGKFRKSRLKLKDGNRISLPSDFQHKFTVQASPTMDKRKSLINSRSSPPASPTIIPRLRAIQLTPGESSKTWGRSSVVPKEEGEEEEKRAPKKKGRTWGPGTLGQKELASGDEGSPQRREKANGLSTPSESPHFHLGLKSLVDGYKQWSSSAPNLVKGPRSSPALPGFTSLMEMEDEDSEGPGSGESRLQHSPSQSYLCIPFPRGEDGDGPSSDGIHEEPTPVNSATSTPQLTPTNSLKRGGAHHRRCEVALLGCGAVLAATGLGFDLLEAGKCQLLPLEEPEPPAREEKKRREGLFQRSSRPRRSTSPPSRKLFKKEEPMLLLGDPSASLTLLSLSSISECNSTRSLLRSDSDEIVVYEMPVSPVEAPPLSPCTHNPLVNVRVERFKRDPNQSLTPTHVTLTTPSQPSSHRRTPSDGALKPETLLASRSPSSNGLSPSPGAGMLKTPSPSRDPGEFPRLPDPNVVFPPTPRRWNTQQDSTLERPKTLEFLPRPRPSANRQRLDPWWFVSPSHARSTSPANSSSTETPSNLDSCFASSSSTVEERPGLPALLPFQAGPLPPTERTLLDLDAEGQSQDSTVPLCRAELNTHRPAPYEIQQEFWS
T1 sequence (Q16584 whole entry): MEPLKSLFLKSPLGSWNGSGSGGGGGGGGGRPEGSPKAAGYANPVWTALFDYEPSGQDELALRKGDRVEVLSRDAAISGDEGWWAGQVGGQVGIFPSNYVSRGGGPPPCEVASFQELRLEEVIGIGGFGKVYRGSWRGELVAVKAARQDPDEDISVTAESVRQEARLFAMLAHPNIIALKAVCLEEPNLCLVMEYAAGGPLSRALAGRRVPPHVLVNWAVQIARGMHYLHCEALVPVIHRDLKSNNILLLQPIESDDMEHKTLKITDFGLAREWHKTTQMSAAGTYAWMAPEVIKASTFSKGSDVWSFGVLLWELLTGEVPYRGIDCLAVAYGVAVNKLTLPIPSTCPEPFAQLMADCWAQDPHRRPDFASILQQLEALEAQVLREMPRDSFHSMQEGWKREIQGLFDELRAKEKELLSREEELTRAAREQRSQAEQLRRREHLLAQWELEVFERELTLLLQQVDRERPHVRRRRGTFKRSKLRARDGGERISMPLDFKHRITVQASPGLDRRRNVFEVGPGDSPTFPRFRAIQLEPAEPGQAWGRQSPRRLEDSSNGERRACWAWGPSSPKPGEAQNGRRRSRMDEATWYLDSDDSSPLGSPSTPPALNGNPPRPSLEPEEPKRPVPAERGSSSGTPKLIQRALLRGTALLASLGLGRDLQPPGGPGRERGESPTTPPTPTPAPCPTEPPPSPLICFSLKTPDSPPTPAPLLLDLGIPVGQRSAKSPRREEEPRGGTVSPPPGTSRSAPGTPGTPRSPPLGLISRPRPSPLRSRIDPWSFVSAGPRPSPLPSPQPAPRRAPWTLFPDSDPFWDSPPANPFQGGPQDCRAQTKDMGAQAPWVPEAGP

Q: How did the “% Enzyme Activity Remaining (relative to DMSO controls), MLK3/MAP3K11, Data 1” value [1] turn out when `CN1CCN(Cc2ccc(-c3cnc4[nH]cc(-c5cccc([N+](=O)[O-])c5)c4c3)cc2)CC1` [Compound 7p, 5-(4-((4-Methylpiperazin-1-yl)methyl)phenyl)-3-(3-nitrophenyl)-1H-pyrrolo[2,3-b]pyridine] was run?
A: Its value is 40.84%.

Q: And the “% Enzyme Activity Remaining (relative to DMSO controls), MLK3/MAP3K11, Data 2” value [1]?
A: Its value is 42.08%.

Q: What about the remaining activity at 0.1 µM [2, 5] of the same compound?
A: The remaining activity at 0.1 µM was 62.7%.

Q: What about the remaining activity at 0.1 µM [2, 6] of the same compound?
A: Its remaining activity at 0.1 µM is 62.9%.

Q: What about the remaining activity at 0.025 µM [3] of the same compound?
A: Its remaining activity at 0.025 µM is 3.92%.

Q: What about the remaining activity at 0.1 µM [3] of the same compound?
A: Its remaining activity at 0.1 µM is 1.56%.

Q: And the EC50 [4, 7]?
A: The EC50 was 293 nM.

Q: What about the viability at 1 µM ([4]; Homo sapiens, Neuron) of the same compound?
A: The viability at 1 µM was 116%.

Q: What about the Emax ([4]; Homo sapiens, Neuron) of the same compound?
A: The Emax was 131%.

Q: With `CN1CCN(Cc2ccc(-c3cnc4[nH]cc(-c5ccc(CN6CCOCC6)s5)c4c3)cc2)CC1` [Compound 7t, 4-((5-(5-(4-((4-Methylpiperazin-1-yl)methyl)phenyl)-1H-pyrrolo[2,3-b]pyridin-3-yl)thiophen-2-yl)methyl)morpholine] as the compound, how does the “% Enzyme Activity Remaining (relative to DMSO controls), MLK3/MAP3K11, Data 1” value [1] read?
A: Its value is 83.49%.

Q: What about the “% Enzyme Activity Remaining (relative to DMSO controls), MLK3/MAP3K11, Data 2” value [1] of the same compound?
A: The value was 78.30%.

Q: What about the remaining activity at 0.1 µM [2, 5] of the same compound?
A: The remaining activity at 0.1 µM was 82.1%.

Q: And the remaining activity at 0.1 µM [2, 6]?
A: The remaining activity at 0.1 µM was 80%.

Q: And the remaining activity at 0.025 µM [3]?
A: Its remaining activity at 0.025 µM is 74.3%.

Q: What about the remaining activity at 0.1 µM [3] of the same compound?
A: The remaining activity at 0.1 µM was 33.4%.

Q: What about the EC50 [4, 7] of the same compound?
A: The EC50 was 1380 nM.

Q: And the viability at 1 µM ([4]; Homo sapiens, Neuron)?
A: Its viability at 1 µM is 43.6%.

Q: What about the Emax ([4]; Homo sapiens, Neuron) of the same compound?
A: Its Emax is 77.3%.

Q: With `CN1CCN(Cc2ccc(-c3cnc4[nH]cc(-c5cccc6c5oc5ccccc56)c4c3)cc2)CC1` [Compound 7c, 3-(Dibenzo[b,d]furan-4-yl)-5-(4-((4-methylpiperazin-1-yl)methyl)phenyl)-1H-pyrrolo[2,3-b]pyridine] as the compound, how does the “% Enzyme Activity Remaining (relative to DMSO controls), MLK3/MAP3K11, Data 1” value [1] read?
A: The value was 90.01%.

Q: What about the “% Enzyme Activity Remaining (relative to DMSO controls), MLK3/MAP3K11, Data 2” value [1] of the same compound?
A: The value was 93.44%.

Q: And the remaining activity at 0.1 µM [2, 5]?
A: The remaining activity at 0.1 µM was 88.3%.

Q: And the remaining activity at 0.1 µM [2, 6]?
A: Its remaining activity at 0.1 µM is 86.8%.

Q: And the remaining activity at 0.025 µM [3]?
A: Its remaining activity at 0.025 µM is 99.3%.

Q: What about the remaining activity at 0.1 µM [3] of the same compound?
A: The remaining activity at 0.1 µM was 81.6%.

Q: What about the EC50 [4] of the same compound?
A: Its EC50 is “Ambiguous”.

Q: What about the viability at 1 µM ([4]; Homo sapiens, Neuron) of the same compound?
A: The viability at 1 µM was 7.84%.

Q: What about the Emax ([4]; Homo sapiens, Neuron) of the same compound?
A: Its Emax is 10.4%.

Q: For `CNC(=O)Nc1ccc(-c2c[nH]c3ncc(-c4ccc(CN5CCN(C)CC5)cc4)cc23)cc1` [Compound 7am, 1-Methyl-3-(4-(5-(4-((4-methylpiperazin-1-yl)methyl)phenyl)-1H-pyrrolo[2,3-b]pyridin-3-yl)phenyl)urea], which “% Enzyme Activity Remaining (relative to DMSO controls), MLK3/MAP3K11, Data 1” value [1] is on record?
A: The value was 49.77%.

Q: And the “% Enzyme Activity Remaining (relative to DMSO controls), MLK3/MAP3K11, Data 2” value [1]?
A: Its value is 46.17%.

Q: And the remaining activity at 0.1 µM [2, 5]?
A: The remaining activity at 0.1 µM was 51%.

Q: What about the remaining activity at 0.1 µM [2, 6] of the same compound?
A: Its remaining activity at 0.1 µM is 51.2%.

Q: And the remaining activity at 0.025 µM [3]?
A: Its remaining activity at 0.025 µM is 56%.

Q: And the remaining activity at 0.1 µM [3]?
A: Its remaining activity at 0.1 µM is 17.7%.

Q: And the EC50 [4, 7]?
A: The EC50 was 948 nM.

Q: What about the viability at 1 µM ([4]; Homo sapiens, Neuron) of the same compound?
A: Its viability at 1 µM is 80%.

Q: What about the Emax ([4]; Homo sapiens, Neuron) of the same compound?
A: The Emax was 122%.

Q: For `CN1CCN(Cc2ccc(-c3cnc4[nH]cc(-c5ccc(OC(F)(F)F)cc5)c4c3)cc2)CC1` [Compound 7z, 5-(4-((4-Methylpiperazin-1-yl)methyl)phenyl)-3-(4-(trifluoromethoxy)phenyl)-1H-pyrrolo[2,3-b]pyridine], which “% Enzyme Activity Remaining (relative to DMSO controls), MLK3/MAP3K11, Data 1” value [1] is on record?
A: Its value is 93.59%.

Q: And the “% Enzyme Activity Remaining (relative to DMSO controls), MLK3/MAP3K11, Data 2” value [1]?
A: The value was 94.16%.

Q: And the remaining activity at 0.1 µM [2, 5]?
A: Its remaining activity at 0.1 µM is 98.6%.

Q: What about the remaining activity at 0.1 µM [2, 6] of the same compound?
A: Its remaining activity at 0.1 µM is 99.2%.

Q: What about the remaining activity at 0.025 µM [3] of the same compound?
A: The remaining activity at 0.025 µM was 96.4%.

Q: And the remaining activity at 0.1 µM [3]?
A: The remaining activity at 0.1 µM was 67.9%.

Q: What about the EC50 [4] of the same compound?
A: Its EC50 is “Ambiguous”.

Q: What about the viability at 1 µM ([4]; Homo sapiens, Neuron) of the same compound?
A: The viability at 1 µM was 11.2%.

Q: And the Emax ([4]; Homo sapiens, Neuron)?
A: The Emax was 12.8%.

Q: With `CN1CCN(Cc2ccc(-c3cnc4[nH]cc(-c5cccc(NC(=O)NCc6ccco6)c5)c4c3)cc2)CC1` [Compound 7ay, 1-(Furan-2-ylmethyl)-3-(3-(5-(4-((4-methylpiperazin-1-yl)methyl)phenyl)-1H-pyrrolo[2,3-b]pyridin-3-yl)phenyl)urea] as the compound, how does the “% Enzyme Activity Remaining (relative to DMSO controls), MLK3/MAP3K11, Data 1” value [1] read?
A: Its value is 84.43%.

Q: And the “% Enzyme Activity Remaining (relative to DMSO controls), MLK3/MAP3K11, Data 2” value [1]?
A: Its value is 83.57%.

Q: What about the remaining activity at 0.1 µM [2, 5] of the same compound?
A: The remaining activity at 0.1 µM was 88.5%.

Q: What about the remaining activity at 0.1 µM [2, 6] of the same compound?
A: The remaining activity at 0.1 µM was 91.8%.

Q: What about the remaining activity at 0.025 µM [3] of the same compound?
A: The remaining activity at 0.025 µM was 93.8%.

Q: And the remaining activity at 0.1 µM [3]?
A: Its remaining activity at 0.1 µM is 79%.

Q: What about the EC50 [4, 7] of the same compound?
A: Its EC50 is 91.2 nM.

Q: What about the viability at 1 µM ([4]; Homo sapiens, Neuron) of the same compound?
A: Its viability at 1 µM is 4.58%.

Q: And the Emax ([4]; Homo sapiens, Neuron)?
A: Its Emax is 9.29%.

Q: Which “% Enzyme Activity Remaining (relative to DMSO controls), MLK3/MAP3K11, Data 1” value [1] does the source give for `CN1CCN(Cc2ccc(-c3cnc4[nH]cc(-c5ccc(N)nc5)c4c3)cc2)CC1` [Compound 7m, 5-(5-(4-((4-Methylpiperazin-1-yl)methyl)phenyl)-1H-pyrrolo[2,3-b]pyridin-3-yl)pyridin-2-amine] here?
A: Its value is 67.62%.

Q: And the “% Enzyme Activity Remaining (relative to DMSO controls), MLK3/MAP3K11, Data 2” value [1]?
A: The value was 67.85%.

Q: What about the remaining activity at 0.1 µM [2, 5] of the same compound?
A: The remaining activity at 0.1 µM was 96.7%.

Q: What about the remaining activity at 0.1 µM [2, 6] of the same compound?
A: Its remaining activity at 0.1 µM is 96.3%.

Q: And the remaining activity at 0.025 µM [3]?
A: Its remaining activity at 0.025 µM is 38.4%.

Q: And the remaining activity at 0.1 µM [3]?
A: The remaining activity at 0.1 µM was 10.8%.

Q: What about the EC50 [4, 7] of the same compound?
A: The EC50 was 213 nM.

Q: And the viability at 1 µM ([4]; Homo sapiens, Neuron)?
A: The viability at 1 µM was 76.1%.

Q: And the Emax ([4]; Homo sapiens, Neuron)?
A: The Emax was 76.1%.

Source: patent publication US12227500B2, “Substituted pyrrolo[2,3-b]pyridines for suppressing toxic endoplasmic reticulum stress” (THE TRUSTEES OF COLUMBIA UNIVERSITY IN THE CITY OF NEW YORK, priority 2018, dated 2025)
